Test results taken from paper PMC10196118, “Evidence for broad cross-reactivity of the SARS-CoV-2 NSP12-directed CD4^+ T-cell response with pre-primed responses directed against common cold coronaviruses” (Frontiers in Immunology, 2023).

What was measured:
[1] = test system: pre-cultured PBMCs (NSP12-specific T cells); test: IFN-γ ELISpot with single 15-mer peptides after 11–13 days in vitro peptide-pool T-cell expansion; assay type: cell-based, human; conditions: single NSP12 15-mer peptides
11 DRB1-HLA molecules = test: In vitro HLA class II binding, number of DRB1 alleles bound; set-up: species or system human; conditions: number of the 11 DRB1-HLA molecules tested bound with an affinity of 1,000 nM or better (in vitro)
CD4+ T cells = test: Peptide-specific CD4+ T-cell response: IFN-γ ELISpot validated by intracellular cytokine staining after in vitro expansion; assay type: cell-based, human; conditions: COVID-19 patients (acute or resolved, n = 27); peptide 10 µg/ml; share of individuals with a positive response
HLA DRB1*15:01 = HLA DRB1*15:01 (Homo sapiens, UniProt P01903+P01911); test: biochemical; assay type: binding; conditions: binder threshold 1,000 nM, read-out: In vitro (IC50 nM) DRB1*15:01
HLA DRB1*03:01 = HLA DRB1*03:01 (Homo sapiens, UniProt P01903+P01911, A100K/A102G/A103R/A169T/F55Y/I96L/K41T/L162R/M171V/P40S/Q125H/Q178H/Q39Y/R42S/S66N/T106N/T262R/W38E/Y61H); test: biochemical; assay type: binding; conditions: binder threshold 1,000 nM, read-out: In vitro (IC50 nM) DRB1*03:01
HLA DRB1*01:01 = HLA DRB1*01:01 (Homo sapiens, UniProt P01903+P01911, A100R/D57E/F55L/F60I/F76Y/I96L/L162R/M171V/P40L/Q125E/R42F/V115G/Y59C); test: biochemical; assay type: binding; conditions: binder threshold 1,000 nM, read-out: In vitro (IC50 nM) DRB1*01:01
HLA DRB1*11:01 = HLA DRB1*11:01 (Homo sapiens, UniProt P01903+P01911, A100R/A169T/A87E/I96F/K41T/L162R/M171V/P40S/Q125H/Q178H/Q39Y/Q99D/R42S/S66Y/T262R/V115G/W38E); test: biochemical; assay type: binding; conditions: binder threshold 1,000 nM, read-out: In vitro (IC50 nM) DRB1*11:01
HLA DRB1*04:01 = HLA DRB1*04:01 (Homo sapiens, UniProt P01903+P01911, A100K/A169T/F76Y/I96L/K127E/L162R/M171V/N62H/P40V/Q125Y/R42H/S133A/S149N/S66Y/V115G/V209L/W38E); test: biochemical; assay type: binding; conditions: binder threshold 1,000 nM, read-out: In vitro (IC50 nM) DRB1*04:01
HLA DRB1*07:01 = HLA DRB1*07:01 (Homo sapiens, UniProt P01903+P01911, A100R/A102G/A103Q/D57E/D86V/E43K/F76Y/K127E/L162R/M171V/P40G/Q125H/Q99D/R33Q/R42Y/R54Q/S133A/S66F/T210M/V115G/Y107V/Y59L/Y89S); test: biochemical; assay type: binding; conditions: binder threshold 1,000 nM, read-out: In vitro (IC50 nM) DRB1*07:01
HLA DRB1*12:01 = HLA DRB1*12:01 (Homo sapiens, UniProt P01903+P01911, A100R/A169T/D57E/D86V/F55L/H45Y/K41T/L162R/M171V/P40S/Q125H/Q178H/Q39Y/Q99D/R42G/S66L/T262R/V114A/V67L/W38E/Y59H/Y61H/Y89S); test: biochemical; assay type: binding; conditions: binder threshold 1,000 nM, read-out: In vitro (IC50 nM) DRB1*12:01
HLA DRB1*08:02 = HLA DRB1*08:02 (Homo sapiens, UniProt P01903+P01911, A100R/A103L/A169T/F76Y/H45Y/I96F/K41T/L162R/M171V/P40S/Q125H/Q178H/Q39Y/Q99D/R218S/R42G/S66Y/V115G/W38E); test: biochemical; assay type: binding; conditions: binder threshold 1,000 nM, read-out: In vitro (IC50 nM) DRB1*08:02
HLA DRB1*04:05 = HLA DRB1*04:05 (Homo sapiens, UniProt P01903+P01911, A100R/A169T/D86S/F76Y/I96L/K127E/L162R/M171V/N62H/P40V/Q125Y/R42H/S133A/S149N/S66Y/V115G/V209L/W38E); test: biochemical; assay type: binding; conditions: binder threshold 1,000 nM, read-out: In vitro (IC50 nM) DRB1*04:05
HLA DRB1*13:02 = HLA DRB1*13:02 (Homo sapiens, UniProt P01903+P01911, A100E/A169T/K41T/L162R/M171V/P40S/Q125H/Q178H/Q39Y/Q99D/R42S/S66N/T262R/V115G/W38E/Y61H); test: biochemical; assay type: binding; conditions: binder threshold 1,000 nM, read-out: In vitro (IC50 nM) DRB1*13:02
HLA DRB1*09:01 = HLA DRB1*09:01 (Homo sapiens, UniProt P01903+P01911, A100R/A103E/D57H/D86V/F55Y/F60I/F76Y/I96F/K127E/L162R/M171V/P40D/Q125H/Q99R/R33Q/R42F/S133A/S66N/T210M/V115G/W38K/Y107V/Y59G/Y89S); test: biochemical; assay type: binding; conditions: binder threshold 1,000 nM, read-out: In vitro (IC50 nM) DRB1*09:01

HLA DRB1*03:01, sequence (P01903 26-254, other chains not shown): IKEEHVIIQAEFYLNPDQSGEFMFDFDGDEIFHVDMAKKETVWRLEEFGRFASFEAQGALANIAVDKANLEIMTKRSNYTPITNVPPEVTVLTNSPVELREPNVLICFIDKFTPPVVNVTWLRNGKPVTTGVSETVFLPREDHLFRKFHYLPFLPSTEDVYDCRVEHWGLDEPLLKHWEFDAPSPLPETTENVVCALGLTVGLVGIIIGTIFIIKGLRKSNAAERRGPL
HLA DRB1*11:01, sequence (P01903 26-254, other chains not shown): as above
HLA DRB1*13:02, sequence (P01903 26-254 limits assumed, other chains not shown): as the sequence (P01903 26-254, other chains not shown) above

SMILES	IC50 (HLA DRB1*15:01) [nM]	IC50 (HLA DRB1*03:01) [nM]	IC50 (HLA DRB1*01:01) [nM]	IC50 (HLA DRB1*11:01) [nM]	IC50 (HLA DRB1*04:01) [nM]	IC50 (HLA DRB1*07:01) [nM]	IC50 (HLA DRB1*12:01) [nM]	IC50 (HLA DRB1*08:02) [nM]	IC50 (HLA DRB1*04:05) [nM]	IC50 (HLA DRB1*13:02) [nM]	IC50 (HLA DRB1*09:01) [nM]	further results
CC(C)C[C@H](NC(=O)[C@H](CCCNC(=N)N)NC(=O)[C@H](Cc1ccc(O)cc1)NC(=O)[C@H](Cc1ccccc1)NC(=O)[C@H](CCCNC(=N)N)NC(=O)[C@H](Cc1c[nH]cn1)NC(=O)[C@H](CO)NC(=O)[C@H](CC(C)C)NC(=O)[C@H](CO)NC(=O)[C@@H](N)CS)C(=O)N[C@@H](C)C(=O)N[C@@H](CC(N)=O)C(=O)N[C@@H](CCC(=O)O)C(=O)N[C@@H](CS)C(=O)N[C@@H](C)C(=O)O [NSP12_130]	–	–	–	–	–	–	–	–	–	–	–	peptide-specific response, donor HH-N12-18, post COVID-19 ([1]; donor HH-N12-18, sample post COVID-19): 0; peptide-specific response, donor HH-N12-18, pre COVID-19 ([1]; donor HH-N12-18, sample pre COVID-19): 0; peptide-specific response, donor HH-N12-34, post COVID-19 ([1]; donor HH-N12-34, sample post COVID-19): 0.031; peptide-specific response, donor HH-N12-34, pre COVID-19 ([1]; donor HH-N12-34, sample pre COVID-19): 0.09; peptide-specific response, donor HH-N12-35, post COVID-19 ([1]; donor HH-N12-35, sample post COVID-19): 0; peptide-specific response, donor HH-N12-35, pre COVID-19 ([1]; donor HH-N12-35, sample pre COVID-19): 0; peptide-specific response, donor HH-N12-36, post COVID-19 ([1]; donor HH-N12-36, sample post COVID-19): 0.06; peptide-specific response, donor HH-N12-36, pre COVID-19 ([1]; donor HH-N12-36, sample pre COVID-19): 0; peptide-specific response, donor HH-N12-37, post COVID-19 ([1]; donor HH-N12-37, sample post COVID-19): 0.032; peptide-specific response, donor HH-N12-37, pre COVID-19 ([1]; donor HH-N12-37, sample pre COVID-19): 0; Alleles bound (11 DRB1-HLA molecules): 8; RF (response frequency), CD4+ T-cell response (CD4+ T cells): 26%
CC(C)C[C@H](NC(=O)[C@H](CCCNC(=N)N)NC(=O)[C@H](Cc1ccc(O)cc1)NC(=O)[C@H](Cc1ccccc1)NC(=O)[C@@H](N)CCCNC(=N)N)C(=O)N[C@@H](C)C(=O)N[C@@H](CC(N)=O)C(=O)N[C@@H](CCC(=O)O)C(=O)N[C@@H](CS)C(=O)N[C@@H](C)C(=O)N[C@@H](CCC(N)=O)C(=O)N[C@H](C(=O)N[C@@H](CC(C)C)C(=O)N[C@@H](CO)C(=O)N[C@@H](CCC(=O)O)C(=O)O)C(C)C [NSP12_131]	611	8410	53	367	27	279	6320	2350	270	23800	48	–
CC(C)C[C@H](NC(=O)[C@H](CCCNC(=N)N)NC(=O)[C@H](Cc1ccc(O)cc1)NC(=O)[C@H](Cc1ccccc1)NC(=O)[C@H](CCCNC(=N)N)NC(=O)[C@H](Cc1c[nH]cn1)NC(=O)[C@H](CO)NC(=O)[C@H](CC(C)C)NC(=O)[C@H](CO)NC(=O)[C@H](CS)NC(=O)[C@H](CS)NC(=O)[C@@H](NC(=O)[C@@H](NC(=O)[C@H](Cc1c[nH]cn1)NC(=O)[C@@H](N)CCCCN)[C@@H](C)O)[C@@H](C)O)C(=O)O [NSP12_129]	447	916	279	235	613	56	59	1010	644	1170	286	–
CC[C@H](C)[C@H](NC(=O)[C@H](CCSC)NC(=O)[C@H](CCSC)NC(=O)[C@H](CO)NC(=O)[C@H](Cc1ccccc1)NC(=O)[C@H](Cc1c[nH]cn1)NC(=O)[C@H](CCCCN)NC(=O)[C@H](CCCNC(=N)N)NC(=O)[C@H](CC(C)C)NC(=O)[C@H](Cc1ccc(O)cc1)NC(=O)[C@H](C)NC(=O)[C@@H](N)Cc1ccc(O)cc1)C(=O)N[C@@H](CC(C)C)C(=O)N[C@@H](CO)C(=O)N[C@@H](CC(=O)O)C(=O)O [Peptide 150]	0.23	5020	495	7.9	102	0.73	96	138	318	755	4.8	–
CC[C@H](C)[C@H](NC(=O)[C@@H](NC(=O)[C@@H]1CCCN1C(=O)[C@@H](NC(=O)[C@@H](NC(=O)[C@H](CC(N)=O)NC(=O)[C@H](CCCNC(=N)N)NC(=O)[C@H](CCCCN)NC(=O)[C@@H](NC(=O)[C@H](Cc1ccc(O)cc1)NC(=O)[C@H](C)NC(=O)[C@H](Cc1ccccc1)NC(=O)[C@H](CC(C)C)NC(=O)[C@H](C)N)[C@@H](C)O)C(C)C)[C@@H](C)CC)[C@@H](C)O)C(=O)N[C@H](C(=O)O)[C@@H](C)O [NSP12_106]	770	709	7360	6.6	3660	1.6	756	190	13000	32	52	–
